Reference: patent publication US20230416271A1, “HETEROARYLQUINAZOLINE COMPOUNDS AS PROTEIN KINASE INHIBITORS” (CHENGDU CYNOGEN BIO-PHARMACEUTICAL TECHNOLOGY CO., LTD., priority 2020, published 2023)

Key:
Format in all cases: biochemical
CDK2/Cyclin A2 = CDK2/Cyclin A2 (Homo sapiens (Human), UniProt P24941); test: Kinase activity assay (Caliper Mobility Shift Assay), CDK2/Cyclin A2
Protocol: (§1) The inhibitory effect of compounds against the kinase CDK4/cyclin D3 was detected by Caliper Mobility Shift Assay method. The final concentration of the compounds to be tested was set at 10 concentrations starting from 1 uM by 3-fold serial dilution. 5 μL of compounds at 5-fold final concentration and 10 μL of CDK4/cyclin D3 kinase solution at a final concentration of 10 nM was added to a 384-well reaction plate, respectively. The plate was pre-incubated for 10 min at room temperature (with negative control wells containing 10 uL of kinase buffer and 5 uL of 5% DMSO; positive control wells containing 10 μL of kinase solution and 5 uL of 5% DMSO). The reaction was initiated by adding 10 μL of ATP at a final concentration of 250 uM and the corresponding substrate peptide mixture at room temperature for 150 minutes. 30 uL of stop detection solution containing EDTA was added to stop the kinase reaction. Caliper EZ Reader was used to read the conversion rate. Conversion inhibition rate %=(average conversion rate of positive control %−conversion rate of sample %)/(average conversion rate of positive control %−average conversion rate of negative control %). wherein: negative control wells represent the conversion rate readings of wells without enzymatic activity; positive control wells represent conversion readings for wells with no compound inhibition. The log(inhibitor) vs. response—Variable slope of the analysis software GraphPad Prism 5 was used with log concentration value as the X-axis and the percent inhibition rate as the Y-axis to fit the dose-response curve, the IC50 value of each compound on the enzyme activity was thus obtained. Calculation formula: Y=Bottom+(Top−Bottom)/(1+10^((Log IC50−X)*HillSlope)).
(§2) The IC50 values and inhibitory activities of compounds of the present disclosure on CDK6/Cyclin D3, CDK2/Cyclin A2, and CDK9/cyclin T1 were tested in a similar manner.

CDK4/cyclin D3 = CDK4/cyclin D3 (Homo sapiens (Human), UniProt P11802); test: Kinase activity assay (Caliper Mobility Shift Assay), CDK4/cyclin D3; conditions: 10 nM kinase, 250 uM ATP
Protocol: as §1

CDK6/Cyclin D3 = CDK6/Cyclin D3 (Homo sapiens (Human), UniProt Q00534); test: Kinase activity assay (Caliper Mobility Shift Assay), CDK6/Cyclin D3
Protocol: as §1, §2

CDK9/cyclin T1 = CDK9/cyclin T1 (Homo sapiens (Human), UniProt P50750); test: Kinase activity assay (Caliper Mobility Shift Assay), CDK9/cyclin T1
Protocol: as §1, §2

Chain of CDK6/Cyclin D3 (Q00534 whole entry, species assumed): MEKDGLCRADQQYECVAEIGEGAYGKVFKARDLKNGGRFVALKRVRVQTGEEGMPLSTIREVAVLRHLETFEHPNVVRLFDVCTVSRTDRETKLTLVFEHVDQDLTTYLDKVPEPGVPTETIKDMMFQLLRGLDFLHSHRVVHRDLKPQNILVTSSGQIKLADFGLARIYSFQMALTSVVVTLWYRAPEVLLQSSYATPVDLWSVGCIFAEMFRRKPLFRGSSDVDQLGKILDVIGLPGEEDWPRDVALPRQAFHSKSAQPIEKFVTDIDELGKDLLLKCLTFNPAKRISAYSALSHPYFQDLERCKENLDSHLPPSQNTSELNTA
Chain of CDK6/Cyclin D3 (P30281 whole entry partner, species assumed): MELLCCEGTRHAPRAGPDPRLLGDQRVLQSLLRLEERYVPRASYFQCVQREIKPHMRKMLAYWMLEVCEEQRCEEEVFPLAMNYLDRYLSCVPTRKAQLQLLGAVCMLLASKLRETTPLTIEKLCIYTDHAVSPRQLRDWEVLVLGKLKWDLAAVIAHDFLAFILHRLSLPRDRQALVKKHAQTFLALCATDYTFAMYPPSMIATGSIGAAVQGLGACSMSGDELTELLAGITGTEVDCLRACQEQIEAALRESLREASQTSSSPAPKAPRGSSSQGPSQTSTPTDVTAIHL
Chain of CDK9/cyclin T1 (P50750 whole entry, species assumed): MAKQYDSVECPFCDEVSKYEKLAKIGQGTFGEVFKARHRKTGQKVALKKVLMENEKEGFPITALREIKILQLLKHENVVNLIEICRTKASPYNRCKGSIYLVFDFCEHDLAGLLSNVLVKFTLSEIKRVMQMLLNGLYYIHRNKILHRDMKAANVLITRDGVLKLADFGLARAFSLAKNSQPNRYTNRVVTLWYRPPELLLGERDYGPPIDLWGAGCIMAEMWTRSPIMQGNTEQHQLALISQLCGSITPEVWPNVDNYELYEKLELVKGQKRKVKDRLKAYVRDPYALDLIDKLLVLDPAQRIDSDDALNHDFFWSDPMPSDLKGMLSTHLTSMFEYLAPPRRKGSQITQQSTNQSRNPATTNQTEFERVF
Chain of CDK9/cyclin T1 (O60563 whole entry partner, species assumed): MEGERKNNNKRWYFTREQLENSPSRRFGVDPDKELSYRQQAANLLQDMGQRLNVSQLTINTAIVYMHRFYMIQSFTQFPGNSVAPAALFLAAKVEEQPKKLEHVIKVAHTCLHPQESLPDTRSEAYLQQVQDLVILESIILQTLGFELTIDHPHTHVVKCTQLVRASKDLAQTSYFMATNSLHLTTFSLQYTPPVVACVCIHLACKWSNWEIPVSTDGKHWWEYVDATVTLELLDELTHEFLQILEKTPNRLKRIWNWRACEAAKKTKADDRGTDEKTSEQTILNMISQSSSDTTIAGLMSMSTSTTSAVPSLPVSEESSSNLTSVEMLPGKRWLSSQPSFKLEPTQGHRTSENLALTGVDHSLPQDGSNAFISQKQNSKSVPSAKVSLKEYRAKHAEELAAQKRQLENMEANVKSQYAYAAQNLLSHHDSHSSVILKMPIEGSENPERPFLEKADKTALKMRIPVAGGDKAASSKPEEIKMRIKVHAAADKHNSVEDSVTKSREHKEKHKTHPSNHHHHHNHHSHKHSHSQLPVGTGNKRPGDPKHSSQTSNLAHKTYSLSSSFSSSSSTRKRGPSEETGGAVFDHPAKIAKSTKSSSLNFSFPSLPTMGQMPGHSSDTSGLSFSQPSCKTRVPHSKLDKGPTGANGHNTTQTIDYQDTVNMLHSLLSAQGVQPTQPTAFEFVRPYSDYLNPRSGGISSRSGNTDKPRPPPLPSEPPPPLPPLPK
Chain of CDK4/cyclin D3 (P11802 whole entry, species assumed): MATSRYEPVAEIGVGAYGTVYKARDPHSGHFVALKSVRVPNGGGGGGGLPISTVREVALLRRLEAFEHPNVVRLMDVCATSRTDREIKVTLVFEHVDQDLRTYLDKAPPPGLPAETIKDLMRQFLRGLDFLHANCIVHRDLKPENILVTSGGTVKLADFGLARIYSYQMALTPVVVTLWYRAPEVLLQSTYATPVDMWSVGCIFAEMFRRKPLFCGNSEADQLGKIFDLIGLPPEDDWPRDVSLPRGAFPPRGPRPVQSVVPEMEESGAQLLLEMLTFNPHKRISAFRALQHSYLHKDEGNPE
Chain of CDK4/cyclin D3 (P30281 whole entry partner, species assumed): as the sequence (P30281 whole entry partner, species assumed) above

Row | Structure (SMILES) | IC50 (CDK2/Cyclin A2) [nM] | IC50 (CDK4/cyclin D3) [nM] | IC50 (CDK6/Cyclin D3) [nM] | IC50 (CDK9/cyclin T1) [nM]
1 | CC(C)n1nnc2c(C(F)F)cc3cnc(NC4CCN(S(=O)(=O)C(F)F)CC4)nc3c21 [II.30, 4-(difluoromethyl)-N-(1-((difluoromethyl)sulfonyl)piperidin-4-yl)-1-isopropyl-1H-[1,2,3]triazolo[4,5-h]quinazolin-8-amine] | 0.3 | 3 | 6 | 
2 | CC(C)n1nnc2c(CC(F)(F)F)cc3cnc(NC4CCN(S(C)(=O)=O)CC4)nc3c21 [II.31, 1-isopropyl-N-(1-(methylsulfonyl)piperidin-4-yl)-4-(2,2,2-trifluoro-ethyl)-1H-[1,2,3]triazolo[4,5-h]quinazolin-8-amine] | 0.2 | 1 | 2 | 
3 | CC(C)n1nnc2ccc3cnc(NC4CCCNC4)nc3c21 (stereo not shown) [II.34, 1-isopropyl-N-(piperidin-3-yl)-1H-[1,2,3]triazolo[4,5-h]quinazolin-8-amine] | 296 | 55 | 35 | 
4 | CC(C)n1nnc2ccc3cnc(NC4CCCNC4=O)nc3c21 (stereo not shown) [II.36, 3-((1-isopropyl-1H-[1,2,3]triazolo[4,5-h]quinazolin-8-yl)amino)piperidin-2-one] | > 500 | 253 | 446 | 
5 | CC(C)n1nnc2c1-c1nc(NC3CCN(S(C)(=O)=O)CC3)ncc1CC2 [II.37, 1-isopropyl-N-(1-(methylsulfonyl)piperidin-4-yl)-4,5-dihydro-1H-[1,2,3]triazolo[4,5-h]quinazolin-8-amine] | 0.5 | 4 | 12 | 
6 | CC(C)n1nnc2c1-c1nc(NC3CCN(S(=O)(=O)C4CC4)CC3)ncc1CC2 [II.38, N-(1-(cyclopropylsulfonyl)piperidin-4-yl)-1-isopropyl-4,5-dihydro-1H-[1,2,3]triazolo[4,5-h]quinazolin-8-amine] | 0.3 | 3 | 7 | 

Other lines, results leading:

Row | IC50 (CDK2/Cyclin A2) [nM] | IC50 (CDK4/cyclin D3) [nM] | IC50 (CDK6/Cyclin D3) [nM] | IC50 (CDK9/cyclin T1) [nM] | Structure (SMILES)
7 | 42 | 32 | 36 | 25 | CC(C)c1noc2ccc3cnc(N[C@H]4CC[C@H](NC5CCOCC5)CC4)nc3c12 [I.1, (1R,4R)-N^1-(9-isopropylisoxazolo[5,4-h]quinazolin-2-yl)-N^4-(tetrahydro-2H-pyran-4-yl)cyclohexane-1,4-diamine]
8 | 12 | 22 | 26 | 16 | CC(C)c1noc2ccc3cnc(N[C@H]4CC[C@H](NC5CCNCC5)CC4)nc3c12 [I.2, (1R,4R)-N^1-(9-isopropylisoxazolo[5,4-h]quinazolin-2-yl)-N^4-(piperidin-4-yl)cyclohexane-1,4-diamine]
9 | 20 | 16 | 22 | 8 | CC(C)n1nnc2ccc3cnc(N[C@H]4CC[C@H](NC5CCOCC5)CC4)nc3c21 [II.2, (1R,4R)-N^1-(1-isopropyl-1H-[1,2,3]triazolo[4,5-h]quinazolin-8-yl)-N^4-(tetrahydro-2H-pyran-4-yl)cyclohexane-1,4-diamine]
10 | > 500 | 43 | 37 | 11 | CC(C)n1nnc2ccc3cnc(N[C@H]4CC[C@H](N5CCN(CC6CCCC6)CC5)CC4)nc3c21 [II.8, N-((1R,4R)-4-(4-(cyclopentylmethyl)piperazin-1-yl)cyclo-hexyl)-1-isopropyl-1H-[1,2,3]triazolo[4,5-h]quinazolin-8-amine]
11 | 0.2 | 5 | 9 |  | C[C@@]1(O)CCC[C@H]1n1nnc2ccc3cnc(NC4CCN(S(C)(=O)=O)CC4)nc3c21 [II.32, (1R,2R)-1-methyl-2-(8-((1-(methylsulfonyl)piperidin-4-yl)amino)-1H-[1,2,3]triazolo[4,5-h]quinazolin-1-yl)cyclopentan-1-ol]
12 | 0.3 | 3 | 5 |  | C[C@@]1(O)CCC[C@H]1n1nnc2c(C(F)F)cc3cnc(NC4CCN(S(C)(=O)=O)CC4)nc3c21 [II.33]
13 | 10 | 50 | 58 |  | CC(C)n1nnc2ccc3cnc(NC4CCC(=O)NC4)nc3c21 (stereo not shown) [II.35, 5-((1-isopropyl-1H-[1,2,3]triazolo[4,5-h]quinazolin-8-yl)amino)piperidin-2-one]
14 | 0.5 | 3 | 10 |  | CC(C)n1nnc2c1-c1nc(NC3CCN(S(=O)(=O)C(F)F)CC3)ncc1CC2 [II.39, N-(1-((difluoromethyl)sulfonyl)piperidin-4-yl)-1-isopropyl-4,5-dihydro-1H-[1,2,3]triazolo[4,5-h]quinazolin-8-amine]
